According to US7038077B2, “Prodrugs of excitatory amino acids” (Eli Lilly and Company, priority 2001, dated 2006):

Structure (SMILES)	melting point
Cl.N[C@@]1(C(=O)OCc2ccc(Cl)cc2Cl)CC[C@H]2[C@H](C(=O)O)[C@H]21 [Example 29, (1S,2S,5R,6S)-2-Amino-bicyclo[3.1.0]hexane-2,6-dicarboxylic acid 2-(2′,4′-dichloro)benzyl ester hydrochloride]	135 to 137 °C
Cl.N[C@@]1(C(=O)OCc2cc(Cl)ccc2Cl)CC[C@H]2[C@H](C(=O)O)[C@H]21 [Example 33, (1S,2S,5R,6S)-2-Amino-bicyclo[3.1.0]hexane-2,6-dicarboxylic acid 2-(2′,5′-dichloro)benzyl ester hydrochloride]	173 to 175 °C
Cl.N[C@@]1(C(=O)OCc2cc(F)cc(F)c2)CC[C@H]2[C@H](C(=O)O)[C@H]21 [Example 35, (1S,2S,5R,6S)-2-Amino-bicyclo[3.1.0]hexane-2,6-dicarboxylic acid 2-(3′,5′-difluoro)benzyl ester hydrochloride]	98 to 99 °C
Cc1ccc(C)c(COC(=O)[C@]2(N)CC[C@H]3[C@H](C(=O)O)[C@H]32)c1.Cl [Example 41, (1S,2S,5R,6S)-2-Amino-bicyclo[3.1.0]hexane-2,6-dicarboxylic acid 2-(2′,5′-dimethyl)benzyl ester hydrochloride]	70 °C (dec.)

Continued, values first:

melting point	Structure (SMILES)
> 175 °C (dec.)	Cl.N[C@@]1(C(=O)OCc2ccccc2C(F)(F)F)CC[C@H]2[C@H](C(=O)O)[C@H]21
> 220 °C (dec.)	Cl.N[C@@]1(C(=O)OCc2ccccc2F)CC[C@H]2[C@H](C(=O)O)[C@H]21 [Example 31, (1S,2S,5R,6S)-2-Amino-bicyclo[3.1.0]hexane-2,6-dicarboxylic acid 2-(2′-fluoro)benzyl ester hydrochloride]
190 to 191 °C	Cl.N[C@@]1(C(=O)OCc2ccccc2Br)CC[C@H]2[C@H](C(=O)O)[C@H]21 [Example 34, (1S,2S,5R,6S)-2-Amino-bicyclo[3.1.0]hexane-2,6-dicarboxylic acid 2-(2′-bromo)benzyl ester hydrochloride]
195 °C (dec.)	COc1ccccc1COC(=O)[C@]1(N)CC[C@H]2[C@H](C(=O)O)[C@H]21 [Example 48, (1S,2S,5R,6S)-2-Amino-bicyclo[3.1.0]hexane-2,6-dicarboxylic acid 2-(2′-methoxy)benzyl ester]
225 °C (dec.)	N[C@@]1(C(=O)OCc2cccc(F)c2)CC[C@H]2[C@H](C(=O)O)[C@H]21 [Example 54, (1S,2S,5R,6S)-2-Amino-bicyclo[3.1.0]hexane-2,6-dicarboxylic acid 2-(3′-fluoro)benzyl ester]
